The record followed here is ChEMBL document CHEMBL1130217, “Use of a pharmacophore model for the design of EGF-R tyrosine kinase inhibitors: 4-(phenylamino)pyrazolo[3,4-d]pyrimidines” (J Med Chem, 1997).

In test [1] the target is T1, Epidermal growth factor receptor (Homo sapiens, UniProt P00533).
Description: Inhibitory activity against epidermal growth factor receptor tyrosine kinase.
The target of test [2] is Tyrosine-protein kinase ABL1 (Homo sapiens, UniProt P00519).
Description: Inhibitory activity against v-Abl tyrosine kinase
In test [3] the target is Protein kinase C alpha type (Homo sapiens, UniProt P17252). Briefly: Inhibitory activity against protein kinase C alpha […] kinase.
The subject of test [4] is Balb/MK. Briefly: Inhibition of proliferation of EGF-dependent BALB/MK cells. Type of test: functional, cell-based. The following applies: Mus musculus.
Test [5] deals with T1, Epidermal growth factor receptor. Briefly: Inhibition of EGF-stimulated tyrosine phosphorylation in A431 cells.
The target of test [6] is T2, Proto-oncogene tyrosine-protein kinase Src (Homo sapiens, UniProt P12931). Briefly: Inhibition of c-Src tyrosine kinase.
T2 sequence (P12931 2-536 limits assumed): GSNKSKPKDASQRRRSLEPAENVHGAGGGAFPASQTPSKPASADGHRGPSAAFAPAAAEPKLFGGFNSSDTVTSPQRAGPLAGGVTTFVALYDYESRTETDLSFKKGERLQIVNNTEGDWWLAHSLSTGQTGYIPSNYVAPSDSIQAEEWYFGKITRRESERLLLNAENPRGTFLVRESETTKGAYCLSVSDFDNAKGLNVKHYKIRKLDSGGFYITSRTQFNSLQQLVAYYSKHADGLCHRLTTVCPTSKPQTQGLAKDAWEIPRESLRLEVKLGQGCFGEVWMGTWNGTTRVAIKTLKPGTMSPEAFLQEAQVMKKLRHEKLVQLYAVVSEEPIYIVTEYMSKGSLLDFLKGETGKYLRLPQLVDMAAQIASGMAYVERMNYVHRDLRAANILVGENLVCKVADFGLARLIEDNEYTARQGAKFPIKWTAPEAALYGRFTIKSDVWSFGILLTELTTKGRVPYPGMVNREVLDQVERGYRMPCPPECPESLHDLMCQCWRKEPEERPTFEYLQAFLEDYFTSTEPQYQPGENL
Test [7] concerns the target Platelet-derived growth factor receptor (Homo sapiens, UniProt P09619+P16234). Briefly: Inhibition of PDGF stimulated tyrosine phosphorylation in BALB/c3t3 cells.
For test [8], the target named is Cyclin-dependent kinase 1 (Homo sapiens, UniProt P06493). Briefly: Inhibitory activity against CDK1 Ser/Thr kinase.
Cyclin-dependent kinase 1, sequence (P06493 whole entry): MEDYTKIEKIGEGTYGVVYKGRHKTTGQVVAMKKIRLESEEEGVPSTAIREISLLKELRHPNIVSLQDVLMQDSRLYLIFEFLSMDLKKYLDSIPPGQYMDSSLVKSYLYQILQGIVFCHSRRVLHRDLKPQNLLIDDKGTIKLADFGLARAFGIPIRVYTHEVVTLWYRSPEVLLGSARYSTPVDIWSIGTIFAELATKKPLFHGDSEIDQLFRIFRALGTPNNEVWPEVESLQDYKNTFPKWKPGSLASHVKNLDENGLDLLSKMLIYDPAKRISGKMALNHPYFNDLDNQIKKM
Test [9] relates to Balb/MK. Put plainly: Inhibition of proliferation of EGF-dependent BALB/MK cells. Format: functional, cell-based. The note with it: Mus musculus.
Test [10] addresses T2, Proto-oncogene tyrosine-protein kinase Src. Put plainly: Inhibitory activity against c-Src tyrosine kinase.
Test [11] has as its system A-431. Put plainly: In vivo activity against A431 xenografts in mice at 12.5 mg/kg ip dose. Format: functional. The note with it: route intraperitoneal.
The test system of test [12] is A-431. Put plainly: In vivo activity against A431 xenografts in mice at 12.5 mg/kg peroral dose. Type of test: functional. The note with it: route oral.
The subject of test [13] is A-431. Put plainly: In vivo activity against A431 xenografts in mice at 50 mg/kg ip dose. Format: functional. The following applies: route intraperitoneal.

Values joined by “and” are separate entries in the source; they are usually repeats but may differ in a detail not shown here. Equal values may be shown once.

Tyrosine-protein kinase ABL1, sequence (P00519 whole entry, looked up): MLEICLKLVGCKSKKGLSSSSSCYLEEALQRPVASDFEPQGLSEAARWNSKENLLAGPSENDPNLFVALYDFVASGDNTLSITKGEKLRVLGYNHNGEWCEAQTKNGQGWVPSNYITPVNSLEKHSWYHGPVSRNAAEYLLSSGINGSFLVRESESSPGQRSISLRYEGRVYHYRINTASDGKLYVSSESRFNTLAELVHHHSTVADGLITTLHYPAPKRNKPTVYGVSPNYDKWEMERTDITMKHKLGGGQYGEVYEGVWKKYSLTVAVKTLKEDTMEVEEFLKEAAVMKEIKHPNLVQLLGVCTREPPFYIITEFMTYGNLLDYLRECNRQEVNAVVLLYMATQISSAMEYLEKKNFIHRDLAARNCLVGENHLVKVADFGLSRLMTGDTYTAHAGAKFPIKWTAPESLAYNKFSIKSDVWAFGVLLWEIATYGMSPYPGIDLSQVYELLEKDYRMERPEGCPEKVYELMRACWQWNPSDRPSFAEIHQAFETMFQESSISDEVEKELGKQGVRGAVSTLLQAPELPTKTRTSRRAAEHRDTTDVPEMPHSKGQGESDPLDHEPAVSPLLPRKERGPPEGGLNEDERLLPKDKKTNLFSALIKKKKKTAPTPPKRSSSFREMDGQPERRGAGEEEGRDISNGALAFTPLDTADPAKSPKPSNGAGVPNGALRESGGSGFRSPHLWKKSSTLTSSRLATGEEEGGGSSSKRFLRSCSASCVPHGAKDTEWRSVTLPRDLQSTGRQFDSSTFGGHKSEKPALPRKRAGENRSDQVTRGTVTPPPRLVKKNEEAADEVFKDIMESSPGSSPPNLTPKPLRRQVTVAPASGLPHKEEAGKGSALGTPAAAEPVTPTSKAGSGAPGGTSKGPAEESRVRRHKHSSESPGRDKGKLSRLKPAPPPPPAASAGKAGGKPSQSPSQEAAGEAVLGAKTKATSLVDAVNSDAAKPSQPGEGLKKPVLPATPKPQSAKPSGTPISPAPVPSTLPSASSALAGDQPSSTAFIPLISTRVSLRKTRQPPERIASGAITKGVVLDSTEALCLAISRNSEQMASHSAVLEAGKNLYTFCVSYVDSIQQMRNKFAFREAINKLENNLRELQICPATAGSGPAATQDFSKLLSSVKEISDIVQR
T1 sequence (P00533 whole entry): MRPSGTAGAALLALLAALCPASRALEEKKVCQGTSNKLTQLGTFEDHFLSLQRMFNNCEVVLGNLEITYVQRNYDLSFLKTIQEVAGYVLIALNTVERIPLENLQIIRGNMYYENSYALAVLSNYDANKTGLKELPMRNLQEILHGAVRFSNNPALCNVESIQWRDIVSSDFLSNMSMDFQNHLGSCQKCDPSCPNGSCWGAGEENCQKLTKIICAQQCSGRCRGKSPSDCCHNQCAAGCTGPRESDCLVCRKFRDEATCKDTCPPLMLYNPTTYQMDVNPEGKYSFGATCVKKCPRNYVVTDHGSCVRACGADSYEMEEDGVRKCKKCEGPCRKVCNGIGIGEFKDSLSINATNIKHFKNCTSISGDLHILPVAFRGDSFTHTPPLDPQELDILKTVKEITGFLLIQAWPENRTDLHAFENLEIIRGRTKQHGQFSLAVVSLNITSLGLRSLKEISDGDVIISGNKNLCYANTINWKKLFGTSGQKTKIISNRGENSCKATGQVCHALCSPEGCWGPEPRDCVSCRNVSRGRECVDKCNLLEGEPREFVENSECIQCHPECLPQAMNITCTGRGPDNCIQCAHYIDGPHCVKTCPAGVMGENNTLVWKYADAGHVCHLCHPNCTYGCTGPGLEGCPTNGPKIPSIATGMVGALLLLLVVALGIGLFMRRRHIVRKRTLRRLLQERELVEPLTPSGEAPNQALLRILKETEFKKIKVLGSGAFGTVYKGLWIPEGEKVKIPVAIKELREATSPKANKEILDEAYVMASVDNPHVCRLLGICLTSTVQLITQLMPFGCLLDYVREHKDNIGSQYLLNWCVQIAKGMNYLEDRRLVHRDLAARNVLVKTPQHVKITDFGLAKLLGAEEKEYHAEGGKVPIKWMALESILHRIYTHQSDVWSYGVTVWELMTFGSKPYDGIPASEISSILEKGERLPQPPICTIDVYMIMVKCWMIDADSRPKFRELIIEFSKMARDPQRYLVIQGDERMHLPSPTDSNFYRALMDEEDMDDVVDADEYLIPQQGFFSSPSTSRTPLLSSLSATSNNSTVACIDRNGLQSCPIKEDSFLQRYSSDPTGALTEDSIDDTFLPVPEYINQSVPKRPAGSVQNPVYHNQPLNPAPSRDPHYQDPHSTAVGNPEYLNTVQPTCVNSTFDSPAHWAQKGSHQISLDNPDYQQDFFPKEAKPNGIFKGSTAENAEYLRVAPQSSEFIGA

For orientation: IC50 means the point on the concentration scale where inhibition reaches its midpoint. Read a low IC50 as greater potency. In the case of `Clc1cccc(Nc2[nH]nc3ncnc(Nc4cccc(Br)c4)c23)c1`, the IC50 was 130 nM in test [1]; 1360 nM in [2]; 3800 nM in test [3]; 1430 nM in test [4]; less than 800 nM in test [5]; greater than 10000 nM in [6]. Also, the half-maximal inhibitory concentration (IC50) in [7] is greater than 10000 nM.
Regarding `Clc1cccc(Nc2[nH]cnc3nnc(-c4ccccc4)c2-3)c1`, the IC50 in [1] was 19 nM; in [2], 3760 nM; in test [8], 2800 nM; in test [3], greater than 10000 nM; in test [4], 820 nM; in [5], 30 nM. Also, the concentration for half-maximal inhibition (IC50) in test [6] and in test [7] was greater than 10000 nM throughout.
With `Nc1ncnc2c1c(-c1ccccc1)nn2-c1ccccc1`, the IC50 is 800 nM in test [1]; greater than 10000 nM in test [2]; greater than 50000 nM in test [9]; greater than 100000 nM in [3]; greater than 10000 nM in test [7].
As for `Oc1cccc(-c2[nH]nc3ncnc(Nc4cccc(Cl)c4)c23)c1`, the IC50 in test [1] was 26 nM; in [2], 180 nM; in [8], 200 nM; in test [3], greater than 10000 nM; in [4] it was 990 nM; in test [5], 1500 nM. Also, the IC50 in test [10] is 2 nM; in [7], greater than 10000 nM.
Turning to `COc1ccc(Nc2[nH]nc3ncnc(Nc4cccc(Cl)c4)c23)cc1`, the IC50 in test [1] was 30 nM; in test [2] it was greater than 10000 nM; in [8], 5800 nM; in [3] it was 19000 nM; in [4], 1030 nM; in test [5], 1500 nM. Further, the half-inhibitory concentration (IC50) was greater than 10000 nM in test [10] and 10000 nM in test [7].
What is called T/C is the result in the treated group divided by that in the control group, in per cent. Take `Cc1cccc(Nc2ncnc3[nH]nc(Nc4cccc(Cl)c4)c23)c1`: the IC50 in test [1] is 130 nM; in test [2], 1650 nM; in [3], 4700 nM; in test [4], 2700 nM; in [5] it was 150 nM; in test [6], 8080 nM. The same compound showed an IC50 in [7] greater than 10000 nM. Besides, the T/C in test [11] was 27%; in test [12], 44%; in [13], 21% and 23%.
On to `COc1cccc(CNc2[nH]nc3ncnc(Nc4cccc(Cl)c4)c23)c1`, for which the IC50 was 8 nM in test [1]; 3500 nM in test [2]; 3100 nM in [8]; greater than 100000 nM in test [3]; 810 nM in test [4]; 200 nM in [5]. In addition, the IC50 in [10] and in test [7] was greater than 10000 nM in each case.
Take `COc1cccc(Nc2[nH]nc3ncnc(Nc4cccc(Cl)c4)c23)c1`: the IC50 in [1] turned out to be 8 nM; in [2], 3400 nM; in test [8], 4300 nM; in test [3], 4700 nM; in [4], 950 nM; in test [5], 800 nM. For the same compound, the IC50 in test [10] is 7800 nM; in test [7], greater than 10000 nM.
With `Clc1cccc(Nc2ncnc3n[nH]c(Nc4cccc(Cl)c4)c23)c1`, the IC50 was 330 nM in test [1]; 1980 nM in test [2]; 5900 nM in test [3]; 1400 nM in [4]; 250 nM in [5]; 5300 nM in test [10]. For the same compound, half-maximal inhibition in test [7] (IC50) required 10000 nM. Moreover, the T/C in test [11] is 46%; in test [12], 41%; in [13] it was 25% and 31%.
With `CC(C)(C)OC(=O)Nc1ccc(Nc2[nH]nc3ncnc(Nc4cccc(Cl)c4)c23)cc1`, the half-maximal inhibitory concentration (IC50) was greater than 10000 nM in test [1]; greater than 10000 nM in [2]; 57000 nM in test [8]; greater than 10000 nM in test [3]; greater than 10000 nM in test [4]; greater than 100000 nM in test [5]. Besides, the IC50 in [10] and in [7] was greater than 10000 nM each time.
